In PMC11857211, “Bioprospecting Bioactive Peptides in Halobatrachus didactylus Body Mucus: From In Silico Insights to Essential In Vitro Validation” (Marine Drugs, 2025):
Marks after values point to notes of the source that are not given here.

Experiments:
E. coli biofilm = test: Antibiofilm activity (crystal violet); format: cell-based, Escherichia coli; settings: 24 h incubation, HdKTLR 262, HdKNL 262, HdPPP 130, HdVLPN 204, HdLPN 227 µg/mL, OD 595 nm
Experimental: (§1) The antibiofilm activity was determined according to the following method, with some modifications. Taking the microplate from 24 h inhibition growth curves, the contents of the plate were discarded, and each well was carefully washed three times with distilled water to remove non-adherent cells. The adhered cells were fixed with 150 µL of methanol for 10 min. Then, the methanol was discarded, the plates were left to dry, and then, the fixed biofilm was stained with […] of crystal violet (CV) for 10 min. Excess stain was rinsed out by placing the plate under slow-running tap water. Once the plates were air-dried, the dye attached to the adherent cells was resolubilized by adding 150 µL of 33% (v/v) glacial acetic acid and agitated for 15 min. The optical density of the solution obtained was measured at 595 nm using a multidetection plate reader (Synergy H1, Winooski, VT, USA). All tests were carried out in duplicate, with a positive control using an inoculated culture in MH broth and a negative control using MH broth only. The results are presented as the percentage of biofilm formation, calculated according to the following formula, where the OD of the sample is the measured OD of the inoculated medium mixed with the peptides, and the OD of the positive control is the OD measured for the positive control.% Biofilm formation = (ODsample/ODpositive control) × 100(1)

S. enterica biofilm = test: Antibiofilm activity (crystal violet); format: cell-based, Salmonella enterica; settings: 24 h incubation, HdKTLR 262, HdKNL 262, HdPPP 130, HdVLPN 204, HdLPN 227 µg/mL, OD 595 nm
Experimental: as §1

ORAC assay = settings: fluorescence monitored 80 min, means (n ≥ 3) ± SD, nd: not detected
Experimental: The ORAC assay followed the protocol outlined by Coscueta et al.. […] Fluorescence was monitored for 80 min at 1 min intervals. Each sample, standard, blank, or control, analysis was duplicated. The final ORAC values were expressed as µmol TE/µmol of peptide for the peptides and µmol TE /mg of protein for the digestion retentate and permeate contents.

Bifidobacterium species = test: Probiotic growth curves; format: cell-based; settings: B. longum BG3, B. animalis Bo, BB-12, BLC, B. breve; HdKTLR 262, HdKNL 262, HdVLPN 204, HdLPN 227 µg/mL; MRS broth, 24 h, 37 °C, OD 650 nm
Experimental: (§2) The effect of the peptides on probiotics was evaluated using the following probiotic Lactobacillus and Bifidobacterium species: L. acidophilus Ki (LAS), L. acidophilus La5, L. casei L26, L. plantarum 299V, L. rhamnosus RII, B. longum BG3 B. animalis spp. lactis BB12, B. animalis BLC, and B. animalis Bo. All the assays were performed using MRS broth supplemented with 0.5 g/L of L-cysteine. The peptides were combined with a 1/10 ratio of inoculum, containing 2% (v/v) of the probiotic and cultured for […] in MRS broth. For the positive control, deionized water was used instead of the peptides, with a 2% inoculum, while deionized water with MRS served as the negative control. Peptide wells with Bifidobacterium were sealed with paraffin to assure anaerobiosis conditions. The bacterial growth was monitored at 650 nm for 24 h at 37 °C in a microplate reader (Multiskan GO, Thermo Scientific, Finland), and the optical density (OD) was measured hourly. Growth curves were created by transforming the absorbance values in natural logarithms ln (Abs).

Lactobacillus species = test: Probiotic growth curves; format: cell-based; settings: L. acidophilus Ki, La5, L. plantarum 299V, L. casei, L. rhamnosus RII; HdKTLR 262, HdKNL 262, HdVLPN 204, HdLPN 227 µg/mL; MRS broth, 24 h, 37 °C, OD 650 nm
Experimental: as §2

[1] = cited from earlier work
Description: Table 4 Summary of peptide solubility and concentration values. | column: Solubility || A high-performance size exclusion chromatography (HPSEC) analysis was employed to validate the molecular weight of the selected peptides, HdKTLR, HdKNL, HdVLPN, and HdLPN, synthesized by GenScript Biotech (Rijswijk, The Netherlands), following the preparation instructions provided in the technical datasheet. […] At higher concentrations, viscosity may increase due to molecular interactions between DMSO, buffer ions, and water. In iso ...

[2] = ORAC assay of peptide mixed with mucus (synergy); set-up: Increase in ORAC antioxidant activity of peptide combined with mucus versus sum of the individual systems: concentration or dose not given beside the values; settings: for Increase in ORAC antioxidant activity of peptide combined with mucus versus sum of the individual systems: one part peptide to four parts mucus; for ORAC of the peptide alone in the synergy experiment: one part peptide to four parts phosphate buffer, Figure 3 captive, Figure 4 wild series
Experimental: The ORAC assay followed the protocol outlined by Coscueta et al.. […] Fluorescence was monitored for 80 min at 1 min intervals. Each sample, standard, blank, or control, analysis was duplicated. The final ORAC values were expressed as µmol TE/µmol of peptide for the peptides and µmol TE /mg of protein for the digestion retentate and permeate contents. The synergistic interaction between the mucus and peptides was performed by mixing the peptides with mucus at a ratio of one part peptide to four parts mucus. In addition, control analyses were performed by mixing one part of the phosphate buffer with four parts of the mucus and another with one part of the peptide to four parts of the phosphate buffer. The mixtures were then tested in the ORAC assay. The final ORAC values were expressed as µM TE.

| Sequence | Biofilm formation versus control (E. coli biofilm) | Biofilm formation versus control (S. enterica biofilm) | ORAC (ORAC assay; SD) | Effect on probiotic growth (Bifidobacterium species) | Effect on probiotic growth (Lactobacillus species) | Solubility (solvent) [1] | Increase in ORAC antioxidant activity of peptide combined with mucus versus sum of the individual systems ([2]; captive mucus sample) [%] | ORAC of the peptide alone in the synergy experiment [2] | ORAC (ORAC assay) [µmol TE/µmol Peptide] | Increase in ORAC antioxidant activity of peptide combined with mucus versus sum of the individual systems ([2]; wild mucus sample) [%] |
| --- | --- | --- | --- | --- | --- | --- | --- | --- | --- | --- |
| DPPNPKNL [HdKNL] | no significant differences | no significant differences | 0.048 ± 0.002 ^a µmol TE/µmol Peptide | did not inhibit the growth | did not inhibit the growth | H2O | 126 | no antioxidant activity was detected |  |  |
| EDNSELGQETPTLR [HdKTLR] | no significant differences | no significant differences |  | did not inhibit the growth | did not inhibit the growth | H2O |  | no antioxidant activity was detected |  |  |
| PFPGPLPN [HdLPN] | no significant differences | no significant differences | 0.195 ± 0.030 ^b,c µmol TE/µmol Peptide | did not inhibit the growth | did not inhibit the growth | H2O | 51 |  | 0.195 | 54 |
| VYPFPGPLPN [HdVLPN] | no significant differences | no significant differences | 1.560 ± 0.110 ^c µmol TE/µmol Peptide | did not inhibit the growth | did not inhibit the growth | H2O | 31 |  | 1.560 | 44 |
